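Briefly, cells in 96-well plates were exposed to five compound concentrations for 48 h, and endpoints were estimated by linear interpolation. GI50 is the concentration that inhibits growth by half.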 The source made the active and inactive calls. Cut-off read from the data, not from the text of the source: active = GI50 up to about 1.1 µM and inactive = higher.
Assays:
Assay in all cases: DTP human tumour cell line panel, 48 h
[1] = test system: K562
[2] = test system: M14
[3] = test system: UO-31
[4] = test system: MOLT-4
[5] = test system: RXF 393
[6] = test system: MDA-MB-435
[7] = test system: LOX IMVI
[8] = test system: NCI-H226
[9] = test system: U-251
[10] = test system: NCI/ADR-RES
[11] = test system: RPMI-8226
[12] = test system: PC-3
[13] = test system: OVCAR-3
[14] = test system: COLO 205
[15] = test system: NCI-H522
[16] = test system: EKVX
[17] = test system: MDA-N
[18] = test system: SF-295
[19] = test system: MCF7
[20] = test system: HCT-15

SMILES	GI50 [1]	GI50 [2]	GI50 [3]	GI50 [4]	GI50 [5]	GI50 [6]	GI50 [7]	GI50 [8]	GI50 [9]	GI50 [10]	GI50 [11]	GI50 [12]	GI50 [13]	GI50 [14]	GI50 [15]	GI50 [16]	GI50 [17]	GI50 [18]	GI50 [19]	GI50 [20] [µM]
CC(C)(C)c1ccc(NS(=O)(=O)c2ccc(N)cc2)cc1	17.8 µM (inactive)	20.5 µM (inactive)	24.9 µM (inactive)	14.5 µM (inactive)	29.1 µM (inactive)	29.9 µM (inactive)	17.6 µM (inactive)	22.2 µM (inactive)	19.3 µM (inactive)	25.4 µM (inactive)	11.6 µM (inactive)	28.5 µM (inactive)	2.76 µM (inactive)	16.1 µM (inactive)	17 µM (inactive)	26.9 µM (inactive)	23.6 µM (inactive)	1.9 µM (inactive)	18.4 µM (inactive)	30.3
COc1ccc(C[C@H]2NC[C@H](OC(C)=O)[C@H]2OC(C)=O)cc1	0.221 µM (active)	0.0951 µM (active)	0.0583 µM (active)	0.205 µM (active)	0.144 µM (active)	0.164 µM (active)	0.067 µM (active)	0.172 µM (active)	0.304 µM (active)	0.171 µM (active)	0.275 µM (active)	0.21 µM (active)	0.233 µM (active)	0.147 µM (active)	0.0525 µM (active)	0.136 µM (active)	0.133 µM (active)	0.183 µM (active)	0.14 µM (active)	0.144
Nc1ccc2c(=S)c3ccccc3[nH]c2c1	16.1 µM (inactive)	20.2 µM (inactive)	27.9 µM (inactive)	18.7 µM (inactive)	39.6 µM (inactive)	42.2 µM (inactive)	26.4 µM (inactive)	24.1 µM (inactive)	28.4 µM (inactive)	43.3 µM (inactive)	13.8 µM (inactive)	34 µM (inactive)	28.2 µM (inactive)	24.5 µM (inactive)	46.8 µM (inactive)	36.5 µM (inactive)	46.8 µM (inactive)	26.4 µM (inactive)	20.1 µM (inactive)	24.2
COC(=O)c1c2c(cc3c1CC1(C3)Cc3cc4c(c(C(=O)OC)c3C1)CCCC4)CCCC2	43 µM (inactive)	> 100 µM (inactive)	0.381 µM (active)	57.5 µM (inactive)	> 100 µM (inactive)	> 100 µM (inactive)	> 100 µM (inactive)	> 100 µM (inactive)	> 100 µM (inactive)	> 100 µM (inactive)	49.8 µM (inactive)	3.94 µM (inactive)	> 100 µM (inactive)	> 100 µM (inactive)	> 100 µM (inactive)	> 100 µM (inactive)	> 100 µM (inactive)	> 100 µM (inactive)	> 100 µM (inactive)	> 100
CCOC(=O)[C@@H]1ON2OC(OC3CCCC3(c3ccccc3)c3ccccc3)C(OC(C)=O)[C@H]3OC(=O)[C@@H]1C32 (stereo not given in full)	97.9 µM (inactive)	95.7 µM (inactive)	36.4 µM (inactive)	43.3 µM (inactive)	27.4 µM (inactive)	51.1 µM (inactive)	22.1 µM (inactive)	> 100 µM (inactive)	42.8 µM (inactive)	> 100 µM (inactive)	> 100 µM (inactive)	> 100 µM (inactive)	30.5 µM (inactive)	> 100 µM (inactive)	21.2 µM (inactive)	89.7 µM (inactive)	> 100 µM (inactive)	31.6 µM (inactive)	21.3 µM (inactive)	> 100
COC(=O)C1(Cc2ccc3c(c2)CCC3)Cc2ccc3c(c2C1=O)CCC3 (stereo not given)	3.37 µM (inactive)	4.26 µM (inactive)	10.6 µM (inactive)	4.06 µM (inactive)	2.11 µM (inactive)	1.73 µM (inactive)	5.87 µM (inactive)	10.5 µM (inactive)	4.65 µM (inactive)	3.07 µM (inactive)	5.4 µM (inactive)	9.02 µM (inactive)	4.26 µM (inactive)	3.05 µM (inactive)	3.92 µM (inactive)	11.1 µM (inactive)	2.01 µM (inactive)	3.72 µM (inactive)	3.43 µM (inactive)	3.66
CC(=O)CCCCC(=O)Nc1ccc(CC(NC(=O)OC(C)(C)C)C(=O)NCC(=O)OCc2ccccc2)cc1 (stereo not given)	17.3 µM (inactive)	17.5 µM (inactive)	22.7 µM (inactive)	24.1 µM (inactive)	25.2 µM (inactive)	21.2 µM (inactive)	15.1 µM (inactive)	34.8 µM (inactive)	18.7 µM (inactive)	> 100 µM (inactive)	18 µM (inactive)	14.4 µM (inactive)	14.8 µM (inactive)	18.5 µM (inactive)	23.6 µM (inactive)	57.3 µM (inactive)	21 µM (inactive)	18.8 µM (inactive)	24.7 µM (inactive)	62.8

Reference: ChEMBL document CHEMBL1201862, “PubChem BioAssay data set” (2004)
